Reference: patent US20240182460A1, “ALLOSTERIC CHROMENONE INHIBITORS OF PHOSPHOINOSITIDE 3-KINASE (PI3K) FOR THE TREATMENT OF DISEASE” (PETRA PHARMA CORPORATION, priority 2022, published 2024)

Legend:
PI3Kα E545K [1] = biological target: T1, PI3Kα E545K (Homo sapiens, UniProt P42336, E545K); test: PI3Kα E545K mutant in vitro cell based assay, MDA-MB-361 cells; parameters: MDA-MB-361 (ATCC-HTB-27) cell line (PI3Kα E545K); host or cells: MDA-MB-361; settings: MDA-MB-361 cell line, 0% FBS, no insulin, 3 hours treatment
In short: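 MDA-MB-361 cells (PI3Kα E545K) seeded in serum-free MEM assay medium without insulin, attached overnight, then treated 3 h with compound (10-point 1:3 series, 0.3% DMSO). AlphaLISA SureFire readout of lysates. IC50 by 4-parameter fit, normalized to DMSO (max) and 1 μM GDC-0032 (min).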

PI3Kα H1047R = biological target: T2, PI3Kα H1047R (Homo sapiens, UniProt P42336, H1047R); test: PI3Kα H1047R mutant in vitro cell based assay, MDA-MB-453 cells (AlphaLisa SureFire); settings: MDA-MB-453 cell line, 0% FBS, 3 hours treatment
T2 construct: The MDA-MB-453 (ATCC-HTB-131) cell line (PI3Kα H1047R); host or cells: MDA-MB-453
In short: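 MDA-MB-453 cells (endogenous PI3Kα H1047R) were treated for 3 h in serum-free MEM containing 1 μg/mL insulin, with 10-point 1:3 dilutions in 0.3% DMSO. Lysates were read by AlphaLisa SureFire. IC50 came from a 4-parameter logistic fit of duplicate % inhibition, normalized to DMSO (max) and 1 μM GDC-0032 (min).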

PI3Kα E545K [2] = biological target: T1, PI3Kα E545K; test: PI3Kα E545K mutant in vitro cell based assay, MCF-7 cells; settings: MCF-7 cell line, 0% FBS, 3 hours treatment
In short: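 MCF-7 cells (PI3Kα E545K) in serum-free MEM with 1 μg/mL insulin were treated 3 h with 10-point 1:3 dilutions in 0.3% DMSO. Lysates were read by SureFire AlphaLisa. IC50 was fitted by 4-parameter logistic to % inhibition relative to DMSO (max) and 1 μM GDC-0032 (min), duplicates averaged.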

T2 sequence (P42336 whole entry H1047R): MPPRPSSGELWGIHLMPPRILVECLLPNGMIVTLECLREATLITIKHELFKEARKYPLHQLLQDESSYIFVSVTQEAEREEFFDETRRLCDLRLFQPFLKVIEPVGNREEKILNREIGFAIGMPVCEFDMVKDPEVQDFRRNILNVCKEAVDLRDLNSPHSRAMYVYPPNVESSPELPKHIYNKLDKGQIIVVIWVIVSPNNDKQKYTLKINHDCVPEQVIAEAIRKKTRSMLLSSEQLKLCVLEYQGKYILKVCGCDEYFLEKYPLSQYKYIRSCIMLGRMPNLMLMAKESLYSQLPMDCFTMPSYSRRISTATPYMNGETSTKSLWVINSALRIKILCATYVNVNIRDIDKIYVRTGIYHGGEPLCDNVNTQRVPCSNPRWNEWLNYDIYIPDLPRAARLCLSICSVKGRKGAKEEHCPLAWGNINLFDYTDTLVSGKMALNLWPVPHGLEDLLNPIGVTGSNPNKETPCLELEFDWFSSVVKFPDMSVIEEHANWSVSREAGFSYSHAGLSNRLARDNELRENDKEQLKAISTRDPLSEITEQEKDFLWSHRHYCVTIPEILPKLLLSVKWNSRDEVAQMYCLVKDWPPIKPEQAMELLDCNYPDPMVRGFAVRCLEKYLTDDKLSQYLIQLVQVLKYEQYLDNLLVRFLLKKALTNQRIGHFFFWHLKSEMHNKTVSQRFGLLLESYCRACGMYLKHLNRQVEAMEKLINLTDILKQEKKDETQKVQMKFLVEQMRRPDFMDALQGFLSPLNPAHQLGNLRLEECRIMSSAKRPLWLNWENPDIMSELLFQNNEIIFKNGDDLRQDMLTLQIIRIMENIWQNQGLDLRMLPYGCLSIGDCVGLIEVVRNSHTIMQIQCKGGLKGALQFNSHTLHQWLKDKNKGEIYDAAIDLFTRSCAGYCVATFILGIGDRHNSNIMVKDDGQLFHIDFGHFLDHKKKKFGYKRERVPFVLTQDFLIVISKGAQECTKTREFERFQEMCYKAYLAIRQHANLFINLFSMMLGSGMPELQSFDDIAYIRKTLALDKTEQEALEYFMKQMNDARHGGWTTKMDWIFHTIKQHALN
T2 sequence (P27986 whole entry partner): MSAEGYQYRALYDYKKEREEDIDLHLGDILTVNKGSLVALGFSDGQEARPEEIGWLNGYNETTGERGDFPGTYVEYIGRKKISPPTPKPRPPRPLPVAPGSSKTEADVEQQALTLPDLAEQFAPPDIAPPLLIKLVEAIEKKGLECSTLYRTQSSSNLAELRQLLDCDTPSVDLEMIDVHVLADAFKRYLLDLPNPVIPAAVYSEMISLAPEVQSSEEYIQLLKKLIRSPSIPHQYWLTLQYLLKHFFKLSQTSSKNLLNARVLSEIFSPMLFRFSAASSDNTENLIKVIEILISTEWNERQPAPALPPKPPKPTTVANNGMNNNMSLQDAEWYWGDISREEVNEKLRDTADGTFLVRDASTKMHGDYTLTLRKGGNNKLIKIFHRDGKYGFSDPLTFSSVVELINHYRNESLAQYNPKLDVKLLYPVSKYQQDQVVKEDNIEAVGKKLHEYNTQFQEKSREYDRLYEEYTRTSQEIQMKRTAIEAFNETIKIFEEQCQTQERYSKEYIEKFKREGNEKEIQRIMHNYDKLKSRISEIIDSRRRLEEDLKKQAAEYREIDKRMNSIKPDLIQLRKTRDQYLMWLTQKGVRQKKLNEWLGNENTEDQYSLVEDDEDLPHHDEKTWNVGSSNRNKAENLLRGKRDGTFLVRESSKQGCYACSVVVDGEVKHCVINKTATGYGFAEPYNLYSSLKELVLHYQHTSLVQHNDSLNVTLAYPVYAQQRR
T1 sequence (P42336 whole entry E545K): as the sequence (P42336 whole entry H1047R) above, with E545K, R1047H counted along it
T1 sequence (P27986 whole entry partner): as the sequence (P27986 whole entry partner) above

With `Cc1cc([C@@H](C)Oc2ccc(Cl)nc2C(N)=O)c2oc(-c3cc(F)c4nn(C)cc4c3)c(C)c(=O)c2c1` [Example 17B, 6-Chloro-3-[(1R)-1-[2-(7-fluoro-2-methyl-indazol-5-yl)-3,6-dimethyl-4-oxo-chromen-8-yl]ethoxy]pyridine-2-carboxamide] the IC50 (PI3Kα E545K [1]) was < 500 nM and the IC50 (PI3Kα H1047R) was < 100 nM.
For `CC(=O)Nc1ccc(-c2oc3c([C@@H](C)Oc4ccc(Cl)nc4C(N)=O)cc(C)cc3c(=O)c2C)cc1` [Example 58C, 3-[(1R)-1-[2-(4-Acetamidophenyl)-3,6-dimethyl-4-oxo-chromen-8-yl]ethoxy]-6-chloro-pyridine-2-carboxamide], the IC50 (PI3Kα E545K [1]) was < 500 nM and the IC50 (PI3Kα H1047R) was < 100 nM.
With `Cc1cc([C@@H](C)Oc2ccc(Cl)nc2NS(C)(=O)=O)c2oc(-c3cnn(C)c3)c(C)c(=O)c2c1` [Example 149A, N-[6-Chloro-3-[(1R)-1-[3,6-dimethyl-2-(1-methylpyrazol-4-yl)-4-oxo-chromen-8-yl]ethoxy]-2-pyridyl]methanesulfonamide] the IC50 (PI3Kα E545K [2]) was < 500 nM and the IC50 (PI3Kα E545K [1]) was < 500 nM.
For `Cc1cc([C@@H](C)Oc2ccc(Cl)nc2-c2noc(=O)[nH]2)c2oc(-c3ccc4c(c3)OC(F)(F)O4)c(C)c(=O)c2c1` [Example 46A, 3-[6-Chloro-3-[(1R)-1-[2-(2,2-difluoro-1,3-benzodioxol-5-yl)-3,6-dimethyl-4-oxo-chromen-8-yl]ethoxy]-2-pyridyl]-4H-1,2,4-oxadiazol-5-one], the IC50 (PI3Kα E545K [2]) was < 500 nM, the IC50 (PI3Kα E545K [1]) was < 500 nM and the IC50 (PI3Kα H1047R) was < 100 nM.
For `Cc1cc([C@@H](C)Oc2ccc(Br)nc2C(N)=O)c2oc(-c3ccc4nn(C)cc4c3)c(C)c(=O)c2c1` [Example 81C, 6-Bromo-3-[(1R)-1-[3,6-dimethyl-2-(2-methylindazol-5-yl)-4-oxo-chromen-8-yl]ethoxy]pyridine-2-carboxamide], the IC50 (PI3Kα E545K [1]) was < 500 nM and the IC50 (PI3Kα H1047R) was < 100 nM.
